These results are taken from patent publication US9938273B2 (Plexxikon Inc., priority 2015, dated 2018).

Structures are written as SMILES.

Usually IC50 stands for the concentration needed to halve the response being measured.

One test has as its target T1, FLT3-ITD (Homo sapiens, UniProt P36888).
T1 sequence (P36888 1-993): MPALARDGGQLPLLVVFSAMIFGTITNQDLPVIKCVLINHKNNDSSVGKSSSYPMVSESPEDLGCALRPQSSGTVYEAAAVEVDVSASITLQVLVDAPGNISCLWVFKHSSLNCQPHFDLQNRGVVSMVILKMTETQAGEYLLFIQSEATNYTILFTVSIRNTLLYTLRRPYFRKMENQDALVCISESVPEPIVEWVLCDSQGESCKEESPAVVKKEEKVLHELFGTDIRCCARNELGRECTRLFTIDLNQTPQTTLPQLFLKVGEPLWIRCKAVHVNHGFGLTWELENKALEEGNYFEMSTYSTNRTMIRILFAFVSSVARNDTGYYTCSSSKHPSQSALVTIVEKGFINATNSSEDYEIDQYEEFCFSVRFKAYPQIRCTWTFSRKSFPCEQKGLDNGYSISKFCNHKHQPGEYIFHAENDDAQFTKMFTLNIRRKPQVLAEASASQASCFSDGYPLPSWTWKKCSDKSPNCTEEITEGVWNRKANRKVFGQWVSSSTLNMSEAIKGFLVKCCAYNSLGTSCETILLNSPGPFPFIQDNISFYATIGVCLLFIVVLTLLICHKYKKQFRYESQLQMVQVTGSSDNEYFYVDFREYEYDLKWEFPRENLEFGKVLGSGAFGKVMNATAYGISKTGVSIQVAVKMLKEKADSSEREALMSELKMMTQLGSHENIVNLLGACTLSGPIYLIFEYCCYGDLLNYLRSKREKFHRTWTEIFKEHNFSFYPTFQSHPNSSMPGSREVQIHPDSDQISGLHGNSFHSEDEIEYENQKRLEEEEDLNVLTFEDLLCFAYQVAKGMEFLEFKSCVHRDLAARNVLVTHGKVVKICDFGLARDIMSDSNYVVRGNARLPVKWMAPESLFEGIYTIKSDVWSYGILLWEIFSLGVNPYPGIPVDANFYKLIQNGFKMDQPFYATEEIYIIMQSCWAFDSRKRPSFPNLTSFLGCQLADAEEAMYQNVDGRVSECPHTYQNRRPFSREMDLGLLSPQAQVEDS
The test is described as follows: AlphaScreen kinase assay with recombinant enzyme, FLT3-ITD. The format is biochemical. The settings on record: 8pt; read-out: FLT3_ITD 8pt: IC50. Summed up: (§1)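 Recombinant kinase phosphorylates biotinylated poly(Glu4-Tyr) peptide (30 nM final); streptavidin donor and anti-phosphotyrosine PY20 acceptor beads (10 μg/mL final) give a 580 nm proximity signal on 680 nm excitation. IC50 determinations used a final concentration of 10 μM for FLT3-D835Y/FLT3-ITD and 100 μM for c-KIT.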
On the technique in general: Bead proximity is the source of the signal in Alpha formats.

The target of the next test is T2, c-KIT (Homo sapiens, UniProt P10721).
T2 construct: purchased Millipore 14-559K
The test can be described thus: AlphaScreen kinase assay with recombinant enzyme, c-KIT. The format is biochemical. The conditions noted are these: 100ATP, 8pt, GMean. Summed up: as §1

T2 sequence (P10721 26-976): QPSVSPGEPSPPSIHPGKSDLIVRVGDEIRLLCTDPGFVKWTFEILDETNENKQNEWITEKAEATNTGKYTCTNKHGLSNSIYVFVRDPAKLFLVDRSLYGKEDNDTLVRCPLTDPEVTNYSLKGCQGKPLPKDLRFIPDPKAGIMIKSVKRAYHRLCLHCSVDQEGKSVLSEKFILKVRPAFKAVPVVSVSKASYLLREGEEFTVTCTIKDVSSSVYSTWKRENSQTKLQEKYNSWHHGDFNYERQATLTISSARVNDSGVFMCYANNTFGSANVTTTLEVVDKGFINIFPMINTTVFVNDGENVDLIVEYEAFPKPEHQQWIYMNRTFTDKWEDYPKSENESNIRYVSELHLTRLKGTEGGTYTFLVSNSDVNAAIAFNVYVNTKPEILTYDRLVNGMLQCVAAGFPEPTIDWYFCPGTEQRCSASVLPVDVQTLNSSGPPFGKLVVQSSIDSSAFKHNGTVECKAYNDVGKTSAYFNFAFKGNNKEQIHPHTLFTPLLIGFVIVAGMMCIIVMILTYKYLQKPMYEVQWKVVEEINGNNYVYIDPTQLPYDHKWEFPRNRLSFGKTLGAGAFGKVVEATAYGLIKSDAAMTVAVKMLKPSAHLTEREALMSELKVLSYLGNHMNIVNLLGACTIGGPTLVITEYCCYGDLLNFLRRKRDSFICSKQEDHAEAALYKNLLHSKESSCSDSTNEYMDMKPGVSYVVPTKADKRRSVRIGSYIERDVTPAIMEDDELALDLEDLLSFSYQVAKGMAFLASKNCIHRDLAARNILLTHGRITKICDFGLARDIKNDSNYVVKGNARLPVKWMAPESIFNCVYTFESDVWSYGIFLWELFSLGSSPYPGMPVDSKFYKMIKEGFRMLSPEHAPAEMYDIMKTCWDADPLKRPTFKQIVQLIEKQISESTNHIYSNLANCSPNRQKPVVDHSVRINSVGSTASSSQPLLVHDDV

Turning to `c1ccc(-c2cc3cc(-c4ccc5[nH]nc(NC6CCNCC6)c5c4)cnc3[nH]2)cc1` [Compound P-0056, 5-(2-phenyl-1H-pyrrolo[2,3-b]pyridin-5-yl)-N-(4-piperidyl)-1H-indazol-3-amine], the IC50 at FLT3-ITD and at c-KIT was 0.0001 to 10 µM throughout.

Consider `N=C(N)N1CCN(C(=O)c2cccc(-c3cnc4[nH]c(-c5ccccc5)cc4c3)n2)CC1` [Compound P-0057, 4-[6-(2-phenyl-1H-pyrrolo[2,3-b]pyridin-5-yl)pyridine-2-carbonyl]piperazine-1-carboxamidine], for which the IC50 at FLT3-ITD and at c-KIT was 0.0001 to 10 µM each time.

On to `c1ccc(-c2cc3cc(-c4ccc5[nH]nc(NC6CCNC6)c5c4)cnc3[nH]2)cc1` (centres unmarked) [Compound P-0059, 5-(2-phenyl-1H-pyrrolo[2,3-b]pyridin-5-yl)-N-pyrrolidin-3-yl-1H-indazol-3-amine], for which the half-inhibitory concentration (IC50) at FLT3-ITD and at c-KIT was 0.0001 to 10 µM throughout.

Regarding `NC1CCCN(C(=O)c2cccc(-c3cnc4[nH]c(-c5ccccc5)cc4c3)n2)C1` (centres unmarked) [Compound P-0067, (3-amino-1-piperidyl)-[6-(2-phenyl-1H-pyrrolo[2,3-b]pyridin-5-yl)-2-pyridyl]methanone], the IC50 on FLT3-ITD and at c-KIT was 0.0001 to 10 µM in each case.

Consider `O=C(c1cccc(-c2cnc3[nH]c(-c4ccccc4)cc3c2)n1)N1CCC(O)C1` (centres unmarked) [Compound P-0068, (3-hydroxypyrrolidin-1-yl)-[6-(2-phenyl-1H-pyrrolo[2,3-b]pyridin-5-yl)-2-pyridyl]methanone], for which the IC50 on FLT3-ITD and on c-KIT was 0.0001 to 10 µM each time.

On to `O=C(c1cccc(-c2cnc3[nH]c(-c4ccccc4)cc3c2)n1)N1CCCC(O)C1` (centres unmarked) [Compound P-0069, (3-hydroxy-1-piperidyl)-[6-(2-phenyl-1H-pyrrolo[2,3-b]pyridin-5-yl)-2-pyridyl]methanone], for which the concentration for half-maximal inhibition (IC50) on FLT3-ITD was 0.0001 to 10 µM; at c-KIT, 10 to 50 µM.

As for `NC1CCN(C(=O)c2n[nH]c3ccc(-c4cnc5[nH]c(C6=CCN(C(=O)C7CC7)C6)cc5c4)cc23)CC1` [Compound P-0074, (4-amino-1-piperidyl)-[5-[2-[1-(cyclopropanecarbonyl)-2,5-dihydropyrrol-3-yl]-1H-pyrrolo[2,3-b]pyridin-5-yl]-1H-indazol-3-yl]methanone], the half-maximal inhibitory concentration (IC50) is 0.0001 to 10 µM on FLT3-ITD and 10 to 50 µM at c-KIT.

Turning to `CNC1CCN(Cc2cccc(-c3cnc4[nH]c(-c5ccccc5)cc4c3)n2)C1` (centres unmarked) [Compound P-0087, N-methyl-1-[[6-(2-phenyl-1H-pyrrolo[2,3-b]pyridin-5-yl)-2-pyridyl]methyl]pyrrolidin-3-amine], the concentration for half-maximal inhibition (IC50) at FLT3-ITD and on c-KIT was 0.0001 to 10 µM each time.

As to `O=C(c1cccc(-c2cnc3[nH]c(-c4ccccc4)cc3c2)n1)N1CCC(F)(F)CC1` [Compound P-0089, (4,4-difluoro-1-piperidyl)-[6-(2-phenyl-1H-pyrrolo[2,3-b]pyridin-5-yl)-2-pyridyl]methanone], the IC50 at FLT3-ITD was 0.0001 to 10 µM; on c-KIT it was 50 to 100 µM.

`COC(=O)C1(C)CCN(C(=O)c2cccc(-c3cnc4[nH]c(-c5ccccc5)cc4c3)n2)CC1` [Compound P-0092, methyl 4-methyl-1-[6-(2-phenyl-1H-pyrrolo[2,3-b]pyridin-5-yl)pyridine-2-carbonyl]piperidine-4-carboxylate]: the IC50 on FLT3-ITD lay within 0.0001 to 10 µM; at c-KIT, 50 to 100 µM.
